# Data taken from patent US11235001B2, “RUNX inhibitor” (KYOTO UNIVERSITY, priority 2016, dated 2022).
# Experiments:
# MV4-11 cells = assay: Xenograft AML mouse model (MV4-11); type: in vivo; settings: NOG mice with MV4-11, day 14
# MKN45 cells = assay: Xenograft gastric cancer mouse model (MKN45); type: in vivo
# ROR1 and ROR2 = assay: qRT-PCR of ROR1 and ROR2 in DAOY; type: cell-based, human; settings: 1 μM, 6 hours
# Protocol: A total RNA was isolated with RNeasy mini kit (Qiagen) and reverse transcribed with Reverse script kit (TOYOBO) to generate cDNA. Real-time quantitative polymerase chain reaction (PCR) was carried out with 7500 Real-Time PCR System (Applied Biosystems) according to the manufacturer's instructions. Results were normalized to GAPDH levels. Relative expression levels were calculated using the 2-ΔΔCt method.
# To medulloblastoma cell line DAOY, 1 μM Chb-M′ was administered. After 6 hours, the mRNA levels of cancer promoting factors ROR1 and ROR2, which are important for medulloblastoma, were evaluated by qRT-PCR (see the above-described “Real-time quantitative PCR (qRT-PCR)”). As a control, DMSO was administered. In the figure, the mRNA expression levels of ROR1 and ROR2 are shown as values relative to those in the DMSO-treated group. As evident from FIG. 48, the expressions of ROR family were suppressed by Chb-M′ at transcriptional levels.
# CD62E (E-selectin) = assay: FACS of cell surface CD62E (E-selectin) in HUVEC; type: cell-based, human; settings: 1 μM, 24 hours
# Protocol: Using HUVEC, changes in expression levels of E-selectin by the RUNX inhibitor and RUNX knockdown were analyzed by FACS (fluorescence-activated cell sorter). To HUVEC, 1 μM of Chb-M′ was administered. After 24 hours, different antibodies were used for immunostaining and changes in the cell surface expression of CD62E (E-selectin) were measured. As a control, DMSO was administered. In addition, HUVEC in which RUNX1 gene expression was knockdown by sh_RUNX1 #2 were immunostained using different antibodies to measure changes in the cell surface expression of CD62E (E-selectin). As a control, the cells were knockdown by a siRNA targeting luciferase (sh_Luc.). As the antibodies, an anti-human CD62E (E-selectin) antibody (manufactured by eBioscience) and an isotype antibody (mouse IgG1) of anti-human CD62E (E-selectin) antibody (manufactured by eBioscience) were used.
# HMC-1.2 cell line = assay: Cell proliferation of HMC-1.2 mast cells; type: cell-based, human
# [1] = test system: p53-mutated colon cancer cell line HT29; settings: HT29, 72 hours
# p53 mutated cells = assay: Concomitant use with p53 inducer MIRA-1 in p53 mutated cells; type: cell-based, human; settings: compared with the PRIMA-1 experiments (synergistic inhibition)
# Protocol: We examined the effect of concomitant use of the conjugates and a p53 inducer. […] KG1a and HL60 cells are null for p53 (p53null cell lines). MV4-11NR, Kasumi-1 and THP-1 cells harbor mutated p53 (p53mut(+) cell lines).
# Further, the same experiments were performed using a p53 inducer MIRA-1 and the same results were obtained. Although the PI polyamide conjugates of the present invention may greatly reduce their potency in p53 mutated cells (cancer cells harboring mutated p53 or no p53), concomitant use with a p53 inducer enables suppression of such p53 mutated cells.
# [2] = test system: c-kit, phospho-c-Kit, AKT, phosphorylated AKT, Mitf; assay: Western blot of KIT signalling, HMC-1.2 mast cells; type: cell-based, human; settings: HMC-1.2, 10 μM, 18 hours
# Protocol: Cells were washed twice with ice cold phosphate-buffered saline (PBS) and harvested in protein lysis buffer [50 mM Tris (pH 7.4), 100 mM NaCl, 0.1 mM EDTA, 1 mM phenylmethylsulfonyl fluoride, 1 mM β-glycerophosphate, 2.5 mM sodium pyrophosphate, 1 mM Na3VO4, lx protease inhibitor (Roche) and PhosSTOP (Roche)]. Whole cell extracts were separated by SDS-polyacrylamide gel electrophoresis (SDS-PAGE) and electrotransferred onto polyvinylidene difluoride membranes. […] Blots were detected using Chemi-Lumi One Super (nacalai tesque, Inc.) and ChemiDoc™ XRS+ Imager (Bio-Rad Laboratories, Inc.), as recommended by the manufacturers. Protein levels were quantified with Image Lab Software (Bio-Rad Laboratories, Inc.).
# To the LAD2 cell line and the HMC-1.2 cell line, 10 μM Chb-M′ was administered. After culturing the cells for 18 hours, extracts were obtained from the cells, and the protein expression levels of c-kit, phospho-c-Kit, AKT, phosphorylated AKT, Mitf, and GAPDH were analyzed by the Western blot analysis (see the above-described “Immunoblotting”) using different antibodies. […]
# [3] = test system: RUNX family (RUNX1, RUNX2 and RUNX3); assay: Gene expression microarray in MV4-11 cells vs RUNX family knockdown; type: cell-based, human; settings: 1 μM, 6 hours, top 500 up- and down-regulated genes
compound,measurement,setting,value
CN(C)CCCNC(=O)c1cc(NC(=O)c2cc(NC(=O)c3cc(NC(=O)c4cc(NC(=O)CCCNC(=O)c5nc(NC(=O)c6nc(NC(=O)c7cc(NC(=O)c8nc(NC(=O)CCNC(=O)CCCc9ccc(N(CCCl)CCCl)cc9)cn8C)cn7C)cn6C)cn5C)cn4C)cn3C)cn2C)cn1C [Chb-M′],H&E staining of bone marrow,MV4-11 cells,homogeneity was lost
same,hCD45 staining of bone marrow (human leukemia cells),MV4-11 cells,most of the brown parts lost
same,Tumor growth (tumor volume),"MKN45 cells; MKN45 xenograft, 320 μg/kg IV twice a week, to day 35",almost no change in tumor size
same,Size of gastric cancer (IVIS),"MKN45 cells; day 21 after transplantation, after total 4 administrations",decreased
same,Size of gastric cancer (IVIS),"MKN45 cells; day 35 after transplantation, after total 8 administrations",slightly grew
same,Expressions of ROR family (ROR1 and ROR2 mRNA),ROR1 and ROR2,suppressed
same,Cell surface expression of E-selectin (FACS),CD62E (E-selectin),decrease
same,Cell proliferation of mast cells having mutated c-kit,HMC-1.2 cell line,suppression
same,IC50,[1],2920 nM
same,Effect of concomitant use with p53 inducer MIRA-1 on cell proliferation,p53 mutated cells,same results
same,Expression levels of c-kit and phospho-c-Kit,[2],suppressed
same,pAKT amount of protein,[2],slight decrease
same,Gene expression pattern vs cells with all RUNX family members knockdown,[3],significantly correlated
